Holding throughout (type): cell-based, human
Test [1] relates to HeLa cells. As to the kind of experiment: Fluorescence microscopy of translocation into cells. The conditions noted are these: FITC-labeled, 10 μM, 30 minutes, 37° C., FIG. 4. How it is done:
(§1) Cells are treated with 10 μM test compound for 30 minutes at 37° C., washed using PBS, and then treated with 0.5% trypsin. Cells are labeled with 5 μg/ml Hoechst 33342 (Invitrogen) and PKH26-GL (Sigma) respectively for nuclei and membrane labeling. Standard protocols are followed according to the kit instructions. Cells are lastly suspended again in PBS for fluorescence images. Fluorescence images are captured by Olympus, CellR and Olympus FV1000 confocal microscope using glass-bottom culture slides with excitation by 488 nm (FITC-labeled peptide) laser line.

The test system of a further test is hADSCs. Described as above. To be noted: FITC-labeled, 10 μM, 30 minutes, 37° C., FIG. 5. The procedure:
as §1

Test [2] relates to HeLa cells. As to the kind of experiment: Endocytosis inhibition analysis (uptake with inhibitors). The conditions noted are these: 10 μM, 37° C., 30 minutes, inhibitors NaN3 and 2DG, EIPA, NaClO3, FIG. 8(A). The procedure: For inhibition of endocytosis, HeLa cells are treated with 200 mM sodium azide (NaN3; Sigma) and 2-deoxy-D-glucose (2DG; Sigma) for 1 hour to deplete intracellular ATP pools and influence cell metabolism. hADSCs are treated with 10 mM NaN3 and 2DG for 1 h with the same purpose. For inhibition of macropinosome formation, HeLa cells and hADSCs are treated with 3 mM 5-(N-ethyl-N-isopropyl) amiloride (EIPA, Sigma) for 10 minutes. For inhibition of proteoglycan sulfation, HeLa cells and hADSCs are treated with 600 mM sodium chlorate (NaClO3, Sigma) for 2 days. After this treatment of inhibitors, cells are treated with 10 μM test compound (200 μl), and then incubated at 37° C. for 30 minutes. 10^4 cells in 0.1 ml medium are seeded into each well of a 24-well plate, and then trypsin (200 μl) is added into each well. Cells are transferred to a microtube and incubated for 5 minutes. Cells are processed for flow cytometry as described above after being added with 200 μl of medium and washed with PBS.

No end group written: not given here.

6-aminocaproic acid-R7 [ACP-R7]: the translocation into cells entry in the test on HeLa cells [1] is reported as “crosses into HeLa cells”; with hADSCs, “crosses into ADSCs”. Besides, in the test with HeLa cells [2], the “route of internalization, uptake combined with inhibitors” value was “internalized by macropinocytosis, endocytosis, and direct translocation resulted from proteoglycan sulfation”. Consider “AAAADD [A4D2, four alanine residues linked to the N terminal of two aspartate residues]”, for which the translocation into cells result in the test with hADSCs is “crosses into ADSCs”. Regarding “AADDDD [A2D4, two alanine residues linked to the N terminal of four aspartate residues]”, the translocation into cells result with hADSCs is given as “crosses into ADSCs”. Same read-out and setting: the result for “DDDDDD [D6, peptide of six aspartate residues]” reads “crosses into ADSCs”; that for “KD6K-simvastatin: peptide KDDDDDDK carrying simvastatin and PEG500; Lys capped by acetic anhydride or FITC (also: carries simvastatin and PEG500, Lys capped by acetyl or FITC)”, “crosses into ADSCs”. Consider “KDDDDDD [KD6, one lysine residue linked to the N terminal of six aspartate residues]”, for which the translocation into cells result with hADSCs is “crosses into ADSCs”.
